Test results reported in patent publication US8962574B2 (Boehringer Ingelheim International GmbH, priority 2008, dated 2015).

Legend:
[1] = tested on: patients with atrial fibrillation at risk of stroke; assay: RELY Clinical Trial, dabigatran 110 mg or 150 mg twice daily versus warfarin; type: in vivo
Excerpt: The primary study outcome was stroke or systemic embolism. The primary safety outcome was major hemorrhage. Secondary outcomes were stroke, systemic embolism and death. […] All other bleeding was considered minor.
All analyses were based on intention-to-treat.

AF patients = settings: ACTIVE W, warfarin arm; cited from earlier work

With `CC(=O)CC(c1ccccc1)c1c(O)c2ccccc2oc1=O` (racemic) [warfarin, 3-(α-acetonylbenzyl)4-hydroxycoumarin] the “ALT or AST >3xULN” value ([1]; adjusted to INR 2.0 to 3.0) was “(2.1) %”, the “ALT or AST >3xULN with concurrent bilirubin >2xULN” value ([1]; adjusted to INR 2.0 to 3.0) was “(0.4) %” and the “ALT or AST >3xULN with concurrent bilirubin >2xULN, number of patients” value ([1]; adjusted to INR 2.0 to 3.0) was 22. The “ALT or AST >3xULN, number of patients” value ([1]; adjusted to INR 2.0 to 3.0) was 126, the “Adverse Event Arthralgia” value ([1]; adjusted to INR 2.0 to 3.0) was “(5.5) %” and the “Adverse Event Arthralgia, number of patients” value ([1]; adjusted to INR 2.0 to 3.0) was 328. The “Adverse Event Atrial fibrillation” value ([1]; adjusted to INR 2.0 to 3.0) was “(5.4) %”, the “Adverse Event Atrial fibrillation, number of patients” value ([1]; adjusted to INR 2.0 to 3.0) was 326 and the “Adverse Event Back pain” value ([1]; adjusted to INR 2.0 to 3.0) was “(5.5) %”. For the same compound, the “Adverse Event Back pain, number of patients” value ([1]; adjusted to INR 2.0 to 3.0) was 331, the “Adverse Event Chest pain” value ([1]; adjusted to INR 2.0 to 3.0) was “(5.7) %” and the “Adverse Event Chest pain, number of patients” value ([1]; adjusted to INR 2.0 to 3.0) was 342. For the same compound, the “Adverse Event Cough” value ([1]; adjusted to INR 2.0 to 3.0) was “(5.8) %”, the “Adverse Event Cough, number of patients” value ([1]; adjusted to INR 2.0 to 3.0) was 345 and the “Adverse Event Diarrhea” value ([1]; adjusted to INR 2.0 to 3.0) was “(5.5) %”. The “Adverse Event Diarrhea, number of patients” value ([1]; adjusted to INR 2.0 to 3.0) was 327, the “Adverse Event Dizziness” value ([1]; adjusted to INR 2.0 to 3.0) was “(9.3) %” and the “Adverse Event Dizziness, number of patients” value ([1]; adjusted to INR 2.0 to 3.0) was 555. For the same compound, the “Adverse Event Dyspepsia” value ([1]; adjusted to INR 2.0 to 3.0) was “(1.4) %”, the “Adverse Event Dyspepsia, number of patients” value ([1]; adjusted to INR 2.0 to 3.0) was 83 and the “Adverse Event Dyspnoea” value ([1]; adjusted to INR 2.0 to 3.0) was “(9.2) %”. The “Adverse Event Dyspnoea, number of patients” value ([1]; adjusted to INR 2.0 to 3.0) was 550, the “Adverse Event Fatigue” value ([1]; adjusted to INR 2.0 to 3.0) was “(5.9) %” and the “Adverse Event Fatigue, number of patients” value ([1]; adjusted to INR 2.0 to 3.0) was 353. For the same compound, the “Adverse Event Nasopharyngitis” value ([1]; adjusted to INR 2.0 to 3.0) was “(5.5) %”, the “Adverse Event Nasopharyngitis, number of patients” value ([1]; adjusted to INR 2.0 to 3.0) was 327 and the “Adverse Event Peripheral edema” value ([1]; adjusted to INR 2.0 to 3.0) was “(7.6) %”. For the same compound, the “Adverse Event Peripheral edema, number of patients” value ([1]; adjusted to INR 2.0 to 3.0) was 453, the “Adverse Event Upper respiratory tract infection” value ([1]; adjusted to INR 2.0 to 3.0) was “(5.0) %” and the “Adverse Event Upper respiratory tract infection, number of patients” value ([1]; adjusted to INR 2.0 to 3.0) was 297. For the same compound, the “Adverse Event Urinary tract infection” value ([1]; adjusted to INR 2.0 to 3.0) was “(5.3) %”, the “Adverse Event Urinary tract infection, number of patients” value ([1]; adjusted to INR 2.0 to 3.0) was 315 and the “Life threatening bleeding, Rate” value ([1]; adjusted to INR 2.0 to 3.0) was 1.80 /100 Person Years. For the same compound, the “Mortality rate (death from any cause)” value ([1]; adjusted to INR 2.0 to 3.0) was 4.13 % per year, the “Other Major bleeding, Rate” value ([1]; adjusted to INR 2.0 to 3.0) was 1.80 /100 Person Years and the “Pulmonary embolism, Rate” value ([1]; adjusted to INR 2.0 to 3.0) was 0.09 /100 Person Years. For the same compound, the “Rate of hemorrhagic stroke” value ([1]; adjusted to INR 2.0 to 3.0) was 0.38 % per year, the “Rate of major hemorrhage (major bleeding)” value ([1]; adjusted to INR 2.0 to 3.0) was 3.46 % per year and the “Rate of myocardial infarction” value ([1]; adjusted to INR 2.0 to 3.0) was 0.54 % per year. The “Rate of net benefit-risk outcome (major vascular events, major bleeding and death)” value ([1]; adjusted to INR 2.0 to 3.0) was 7.99 % per year, the “Rate of primary outcome stroke or systemic embolism” value ([1]; adjusted to INR 2.0 to 3.0) was 1.70 % per year and the “Reason for discontinuation: Gastrointestinal bleeding” value ([1]; adjusted to INR 2.0 to 3.0) was “(0.9) %”. For the same compound, the “Reason for discontinuation: Gastrointestinal disorders (including pain, vomiting and diarrhea)” value ([1]; adjusted to INR 2.0 to 3.0) was “(0.8) %”, the “Reason for discontinuation: Outcome event” value ([1]; adjusted to INR 2.0 to 3.0) was “(2.2) %” and the “Reason for discontinuation: Patient decision” value ([1]; adjusted to INR 2.0 to 3.0) was “(6.2) %”. The “Reason for discontinuation: SAE” value ([1]; adjusted to INR 2.0 to 3.0) was “(1.6) %”, the “Reason for discontinuation: SAE, number of patients” value ([1]; adjusted to INR 2.0 to 3.0) was 95 and the “Stroke, systemic embolism, pulmonary embolism, myocardial infarction death or major bleed (net benefit), Rate” value ([1]; adjusted to INR 2.0 to 3.0) was 7.99 /100 Person Years. The “Study Drug Discontinuation At one year” value ([1]; adjusted to INR 2.0 to 3.0) was 10%, the “Study Drug Discontinuation At two years” value ([1]; adjusted to INR 2.0 to 3.0) was “(19) %” and the “hepatobiliary disorders (AE)” value ([1]; adjusted to INR 2.0 to 3.0) was “(2.2) %”. The “hepatobiliary disorders (AE), number of patients” value ([1]; adjusted to INR 2.0 to 3.0) was 132, the “hepatobiliary disorders (SAE)” value ([1]; adjusted to INR 2.0 to 3.0) was “(0.4) %” and the “hepatobiliary disorders (SAE), number of patients” value ([1]; adjusted to INR 2.0 to 3.0) was 25. For the same compound, the Rate of discontinuation ([1]; adjusted to INR 2.0 to 3.0, at 2.5 years) was 19%, the “Study Drug Discontinuation At one year” value ([1]; adjusted to INR 2.0 to 3.0, listed as Warfarin) was “(10) %” and the “Myocardial Infarction” value (AF patients) was 0.6% (warfarin). The “Stroke and systemic embolism (per 100 patient years)” value (AF patients) was 1.5% (warfarin).
